According to ChEMBL document CHEMBL1158607, “2' biaryl amides as novel and subtype selective M1 agonists. Part I: Identification, synthesis, and initial SAR” (Bioorg Med Chem Lett, 2010):
The source made the active and inactive calls. The rule behind the calls is not given here.

What was measured:
[1] = target: T1, Muscarinic acetylcholine receptor M1 (Homo sapiens, UniProt P11229); assay: Agonist activity at human muscarinic M1 receptor expressed in CHO cells assessed as effect on acetylcholine-induced intracellular calcium level by FLIPR assay; format: functional, cell-based
T1 sequence (P11229 whole entry): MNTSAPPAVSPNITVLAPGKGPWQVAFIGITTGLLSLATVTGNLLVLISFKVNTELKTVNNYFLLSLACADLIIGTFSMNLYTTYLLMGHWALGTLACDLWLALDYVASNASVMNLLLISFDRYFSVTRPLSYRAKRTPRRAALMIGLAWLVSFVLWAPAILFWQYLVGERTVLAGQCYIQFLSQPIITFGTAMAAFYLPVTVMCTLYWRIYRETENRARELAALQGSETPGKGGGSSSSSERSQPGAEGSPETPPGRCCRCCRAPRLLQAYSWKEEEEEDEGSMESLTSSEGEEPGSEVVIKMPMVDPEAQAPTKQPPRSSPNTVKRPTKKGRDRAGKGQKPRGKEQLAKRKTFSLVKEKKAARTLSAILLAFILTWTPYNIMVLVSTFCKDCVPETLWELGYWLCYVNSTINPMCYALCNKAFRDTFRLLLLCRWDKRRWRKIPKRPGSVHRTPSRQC

[2] = target: T2, Muscarinic acetylcholine receptor M1 (Homo sapiens) (UniProt P11229); assay: Intrinsic activity at human muscarinic M1 receptor expressed in CHO cells assessed as effect on acetylcholine-induced intracellular calcium level by FLIPR assay relative to acetylcholine; format: functional, cell-based
T2 sequence (whole entry): T1 sequence (P11229 whole entry)

[3] = target: T3, Muscarinic acetylcholine receptor M3 (Homo sapiens, UniProt P20309); assay: Agonist activity at human muscarinic M3 receptor expressed in CHO cells assessed as effect on acetylcholine-induced intracellular calcium level by FLIPR assay; format: functional, cell-based
Target sequence in this assay (P20309 whole entry, looked up): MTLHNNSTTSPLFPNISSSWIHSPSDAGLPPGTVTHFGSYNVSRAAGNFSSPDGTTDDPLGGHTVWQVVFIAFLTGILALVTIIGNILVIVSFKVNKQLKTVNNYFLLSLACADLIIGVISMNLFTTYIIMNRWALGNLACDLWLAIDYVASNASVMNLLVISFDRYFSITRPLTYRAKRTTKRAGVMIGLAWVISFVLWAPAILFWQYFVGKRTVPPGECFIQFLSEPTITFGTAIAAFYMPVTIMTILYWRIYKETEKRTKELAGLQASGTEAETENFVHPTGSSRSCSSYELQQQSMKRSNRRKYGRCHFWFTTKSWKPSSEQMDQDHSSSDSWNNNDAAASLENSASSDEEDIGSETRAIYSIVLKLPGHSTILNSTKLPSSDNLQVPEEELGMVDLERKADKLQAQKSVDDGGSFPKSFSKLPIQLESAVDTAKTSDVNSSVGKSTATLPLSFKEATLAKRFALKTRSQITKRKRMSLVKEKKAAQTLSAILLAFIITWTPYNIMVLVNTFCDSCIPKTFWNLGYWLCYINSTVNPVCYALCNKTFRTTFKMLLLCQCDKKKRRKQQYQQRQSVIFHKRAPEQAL

[4] = target: T4, Muscarinic acetylcholine receptor M4 (Homo sapiens) (UniProt P08173); assay: Agonist activity at human muscarinic M4 receptor expressed in CHO cells assessed as effect on acetylcholine-induced intracellular calcium level by FLIPR assay; format: functional, cell-based
T4 sequence (whole entry): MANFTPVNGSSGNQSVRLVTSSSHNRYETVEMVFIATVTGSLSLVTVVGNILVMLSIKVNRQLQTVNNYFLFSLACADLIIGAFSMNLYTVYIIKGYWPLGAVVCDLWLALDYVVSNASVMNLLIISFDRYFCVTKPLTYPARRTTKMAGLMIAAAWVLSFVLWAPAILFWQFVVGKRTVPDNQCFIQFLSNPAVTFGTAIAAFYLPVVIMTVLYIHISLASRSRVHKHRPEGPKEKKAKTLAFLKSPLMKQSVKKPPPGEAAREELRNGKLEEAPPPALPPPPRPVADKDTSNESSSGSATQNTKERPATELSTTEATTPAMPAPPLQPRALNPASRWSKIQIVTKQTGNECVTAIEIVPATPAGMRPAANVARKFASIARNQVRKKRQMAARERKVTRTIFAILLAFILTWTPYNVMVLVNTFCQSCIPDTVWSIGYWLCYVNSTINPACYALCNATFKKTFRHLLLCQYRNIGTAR

[5] = target: T5, Muscarinic acetylcholine receptor M2 (Homo sapiens) (UniProt P08172); assay: Agonist activity at human muscarinic M2 receptor expressed in CHO cells assessed as effect on acetylcholine-induced intracellular calcium level by FLIPR assay; format: functional, cell-based
T5 sequence (whole entry): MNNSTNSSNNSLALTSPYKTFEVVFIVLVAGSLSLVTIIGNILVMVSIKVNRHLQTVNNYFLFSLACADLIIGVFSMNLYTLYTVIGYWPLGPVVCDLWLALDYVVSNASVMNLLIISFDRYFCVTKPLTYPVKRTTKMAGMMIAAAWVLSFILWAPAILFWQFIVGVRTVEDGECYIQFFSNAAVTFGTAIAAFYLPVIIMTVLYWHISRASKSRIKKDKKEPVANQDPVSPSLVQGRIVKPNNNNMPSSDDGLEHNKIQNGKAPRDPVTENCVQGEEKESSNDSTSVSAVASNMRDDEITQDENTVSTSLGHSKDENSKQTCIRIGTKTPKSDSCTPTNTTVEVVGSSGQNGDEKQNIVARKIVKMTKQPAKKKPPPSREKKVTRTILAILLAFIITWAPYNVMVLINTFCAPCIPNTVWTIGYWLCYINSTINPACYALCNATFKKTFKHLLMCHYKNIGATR

[6] = target: T6, Muscarinic acetylcholine receptor M5 (Homo sapiens) (UniProt P08912); assay: Agonist activity at human muscarinic M5 receptor expressed in CHO cells assessed as effect on acetylcholine-induced intracellular calcium level by FLIPR assay; format: functional, cell-based
T6 sequence (whole entry): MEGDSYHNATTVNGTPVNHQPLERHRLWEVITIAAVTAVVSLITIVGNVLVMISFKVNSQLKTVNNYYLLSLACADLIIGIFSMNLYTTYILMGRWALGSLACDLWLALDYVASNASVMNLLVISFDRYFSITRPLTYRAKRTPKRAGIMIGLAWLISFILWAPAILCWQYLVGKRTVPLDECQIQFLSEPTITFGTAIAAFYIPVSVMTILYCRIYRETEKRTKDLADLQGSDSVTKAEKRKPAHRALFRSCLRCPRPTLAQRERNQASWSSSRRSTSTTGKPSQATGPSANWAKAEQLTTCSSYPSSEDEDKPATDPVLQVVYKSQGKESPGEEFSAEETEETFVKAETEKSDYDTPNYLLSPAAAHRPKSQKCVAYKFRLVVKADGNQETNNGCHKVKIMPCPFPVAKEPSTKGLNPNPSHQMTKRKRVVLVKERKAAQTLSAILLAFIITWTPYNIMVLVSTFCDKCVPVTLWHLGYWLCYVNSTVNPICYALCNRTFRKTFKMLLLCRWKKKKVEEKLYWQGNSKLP

[7] = target: T7, Muscarinic acetylcholine receptor M5 (Homo sapiens, UniProt P08912); assay: Inhibition of human muscarinic M5 receptor expressed in CHO cells; format: cell-based
T7 sequence (P08912 whole entry): T6 sequence (whole entry)

[8] = target: T3, Muscarinic acetylcholine receptor M3; assay: Inhibition of human muscarinic M3 receptor expressed in CHO cells; format: cell-based
Target sequence in this assay (P20309 whole entry): as the sequence (P20309 whole entry, looked up) above

[9] = target: T8, Muscarinic acetylcholine receptor M2 (Homo sapiens, UniProt P08172); assay: Inhibition of human muscarinic M2 receptor expressed in CHO cells; format: cell-based
T8 sequence (P08172 whole entry): T5 sequence (whole entry)

[10] = target: T9, Muscarinic acetylcholine receptor M4 (Homo sapiens, UniProt P08173); assay: Inhibition of human muscarinic M4 receptor expressed in CHO cells; format: cell-based
T9 sequence (P08173 whole entry): T4 sequence (whole entry)

Row | EC50 [1] [µM] | SMILES | further results
1 | > 10 | CN(C)c1cccc(-c2ccccc2C(=O)NCC2CCNCC2)c1 | –
2 | > 10 | O=C(NC1CCNC1)c1ccccc1-c1nc(Cl)cs1 (centres undefined) | –
3 | > 10 | CS(=O)(=O)c1cccc(-c2ccccc2C(=O)NCC2CCNCC2)c1 | –
4 | > 10 | O=C(NCC1CCNCC1)c1ccccc1-c1cccc2ccccc12 | –
5 | > 10 | N[C@H]1CC[C@H](CNC(=O)c2ccccc2-c2cccc(Cl)c2)CC1 | –
6 | > 10 | O=C(NCC1CNCCO1)c1ccccc1-c1nc(Cl)cs1 (centres undefined) | –
7 | > 10 | O=C(NCc1ccncc1)c1ccccc1-c1nc(Cl)cs1 | –
8 | > 10 | O=C(NCC1CCNCC1)c1ccccc1-c1cc(Cl)cc(Cl)c1 | Intrinsic activity [2]: 24%
9 | > 10 | COc1cccc(-c2ccccc2C(=O)NCC2CCNCC2)c1 | –
10 | > 10 | O=C(NCC1CCNCC1)c1ccccc1-c1ccc(F)cc1 | –
11 | 0.0501 | O=C(NCC1CCNCC1)c1ccccc1-c1ccc(Cl)c(Cl)c1 | Intrinsic activity [2]: 59%
12 | > 10 | COCc1cccc(-c2ccccc2C(=O)NCC2CCNCC2)c1 | –
13 | – | O=C(NCC1CCNCC1)c1ccccc1-c1nc(Cl)cs1 | Activity [3]: inactive; Activity [4]: inactive; Intrinsic activity [2]: 84%; Activity [5]: inactive; Activity [6]: inactive
14 | 1.58 | Cc1cc(Cl)cc(-c2ccccc2C(=O)NCC2CCNCC2)c1 | Intrinsic activity [2]: 52%
15 | > 10 | NS(=O)(=O)c1cccc(-c2ccccc2C(=O)NCC2CCNCC2)c1 | –
16 | 1 | O=C(NCC1CCNCC1)c1ccccc1-c1cccc(Cl)c1F | Intrinsic activity [2]: 66%
17 | > 10 | O=C(NCC1CCNCC1)c1ccccc1-c1ccc(C(F)(F)F)cc1 | –
18 | > 10 | CC1(C)CNCCC1CNC(=O)c1cc(Cl)ccc1-c1cccc(Cl)c1 (centres undefined) | –
19 | > 10 | N#Cc1cccc(-c2ccccc2C(=O)NCC2CCNCC2)c1 | –
20 | > 10 | O=C(NCC1CCNCC1)c1ccccc1-c1ccc(Cl)s1 | –

Row | EC50 [1] [µM] | SMILES | further results
21 | > 10 | O=C(NCC1CCCNC1)c1ccccc1-c1nc(Cl)cs1 (centres undefined) | –
22 | > 10 | O=C(NCC1CCNC1)c1ccccc1-c1nc(Cl)cs1 (centres undefined) | –
23 | 0.158 | Cc1ccc(Cl)cc1-c1ccccc1C(=O)NCC1CCNCC1 | Intrinsic activity [2]: 86%
24 | > 10 | O=C(NCC1CCNCC1)c1ccccc1-c1cccc(Cl)c1Cl | Intrinsic activity [2]: 16%
25 | > 10 | O=C(NCC1CCNCC1)c1ccccc1-c1ccc2ccccc2c1 | –
26 | > 10 | O=C(NCC1CCNCC1)c1ccccc1-c1cccc(-c2ccccc2)c1 | –
27 | > 10 | O=C(NCC1CCNCC1)c1ccccc1-c1cccc(C(F)(F)F)c1 | –
28 | > 10 | Cc1ccc(-c2ccccc2C(=O)NCC2CCNCC2)cc1 | –
29 | > 10 | O=C(NCC1CCNCC1)c1ccccc1-c1cccnc1 | –
30 | > 10 | CC(NC(=O)c1ccccc1-c1cccc(Cl)c1)C1CCNCC1 (centres undefined) | Intrinsic activity [2]: 26%
31 | > 10 | O=C(O)c1cccc(-c2ccccc2C(=O)NCC2CCNCC2)c1 | –
32 | > 10 | O=C(NCC1CCNCC1)c1ccccc1-c1ccsc1 | –
33 | > 10 | O=C(NCC1CCNCC1)c1ccccc1-c1ccncc1 | –
34 | 0.0126 | Cc1ccc(-c2ccccc2C(=O)NCC2CCNCC2)cc1Cl | Activity [3]: inactive; IC50 [7]: 0.794 µM; IC50 [8]: 0.251 µM; Activity [4]: inactive; Intrinsic activity [2]: 91%; IC50 [9]: 0.398 µM; Activity [5]: inactive; IC50 [10]: 0.398 µM; Activity [6]: inactive
35 | > 10 | CC(=O)c1cccc(-c2ccccc2C(=O)NCC2CCNCC2)c1 | –
36 | > 10 | O=C(NCC1CCN2CCCC1C2)c1ccccc1-c1cccc(Cl)c1 (centres undefined) | –
37 | 0.0398 | O=C(NCC1CCNCC1)c1ccccc1-c1cc(Cl)ccc1Cl | Intrinsic activity [2]: 100%
38 | > 10 | O=C(NCC1CCNCC1)c1ccccc1-c1cccc(OC(F)(F)F)c1 | –
39 | > 10 | O=C(NCC1CCNCC1)c1ccccc1-c1cccs1 | –
40 | > 10 | O=C(NC1CCNCC1)c1ccccc1-c1nc(Cl)cs1 | –

Row | EC50 [1] [µM] | SMILES | further results
41 | > 10 | CN(C)C(=O)c1cccc(-c2ccccc2C(=O)NCC2CCNCC2)c1 | –
42 | > 10 | CC1CC(CNC(=O)c2ccccc2-c2cccc(Cl)c2)CCN1 (centres undefined) | Intrinsic activity [2]: 28%
43 | > 10 | O=C(NC1CCCCNC1)c1ccccc1-c1nc(Cl)cs1 (centres undefined) | –
44 | > 10 | CC(=O)Nc1cccc(-c2ccccc2C(=O)NCC2CCNCC2)c1 | –
45 | > 10 | CC1(CNC(=O)c2ccccc2-c2cccc(Cl)c2)CCNCC1 | Intrinsic activity [2]: 45%
46 | > 10 | Cc1c(Cl)cccc1-c1ccccc1C(=O)NCC1CCNCC1 | Intrinsic activity [2]: 5%
47 | > 10 | O=C(NCC1CCCN1)c1ccccc1-c1nc(Cl)cs1 (centres undefined) | –
48 | > 10 | O=C(NC1CCCNC1)c1ccccc1-c1nc(Cl)cs1 (centres undefined) | –
49 | > 10 | O=C(NCC1CCNCC1)c1ccccc1-c1ccccc1Cl | –
50 | > 10 | O=C(NCC1CCOCC1)c1ccccc1-c1nc(Cl)cs1 | –
51 | > 10 | O=C(NCC1CCNCC1)c1ccccc1-c1ccco1 | –
52 | > 10 | O=C(NCC1CCNCC1)c1ccccc1-c1cc(F)cc(Cl)c1 | Intrinsic activity [2]: 17%
53 | > 10 | NC(=O)c1cccc(-c2ccccc2C(=O)NCC2CCNCC2)c1 | –
54 | > 10 | O=C(NCC1CCNCC1)c1ccccc1-c1cccc(F)c1 | –
55 | > 10 | COc1ccc(-c2ccccc2C(=O)NCC2CCNCC2)cc1 | –
56 | > 10 | O=C(NCC1CCNCC1)c1ccccc1-c1nccs1 | –
57 | > 10 | CN(CC1CCNCC1)C(=O)c1ccccc1-c1cccc(Cl)c1 | Intrinsic activity [2]: 2%
58 | > 10 | CN1CCC(CNC(=O)c2ccccc2-c2cccc(Cl)c2)CC1 | Intrinsic activity [2]: 16%
59 | 0.0251 | O=C(NCC1CCNCC1)c1ccccc1-c1ccc(F)c(Cl)c1 | Intrinsic activity [2]: 76%
60 | > 10 | COc1ccccc1-c1ccccc1C(=O)NCC1CCNCC1 | –

Row | SMILES | EC50 [1] [µM] | further results
61 | O=C(NCC12CCN(CC1)CC2)c1ccccc1-c1nc(Cl)cs1 | 0.251 | Intrinsic activity [2]: 63%
62 | O=C(NC[C@H]1C[C@H]2CC[C@@H](C1)N2)c1ccccc1-c1cccc(Cl)c1 | > 10 | –
63 | O=C(NCC12CCN(CC1)C2)c1ccccc1-c1cccc(Cl)c1 | > 10 | –
64 | Cc1cccc(-c2ccccc2C(=O)NCC2CCNCC2)c1 | > 10 | –
65 | O=C(NCC12CCN(CC1)CC2)c1ccccc1-c1cccc(Cl)c1 | > 10 | –
